The term inhibition denotes the share of the control response that was lost under treatment.

One test has as its target T1, phosphatase ABI1 via the co-regulator RCAR11/PYR1 (Arabidopsis thaliana, UniProt O49686+P49597).
T1 sequence (O49686 1-191): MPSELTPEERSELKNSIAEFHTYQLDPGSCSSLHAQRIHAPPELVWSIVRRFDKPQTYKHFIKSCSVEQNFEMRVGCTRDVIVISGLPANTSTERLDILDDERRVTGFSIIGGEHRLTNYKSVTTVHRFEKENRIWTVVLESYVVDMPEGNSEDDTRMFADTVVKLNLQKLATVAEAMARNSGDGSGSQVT
T1 sequence (P49597 1-434): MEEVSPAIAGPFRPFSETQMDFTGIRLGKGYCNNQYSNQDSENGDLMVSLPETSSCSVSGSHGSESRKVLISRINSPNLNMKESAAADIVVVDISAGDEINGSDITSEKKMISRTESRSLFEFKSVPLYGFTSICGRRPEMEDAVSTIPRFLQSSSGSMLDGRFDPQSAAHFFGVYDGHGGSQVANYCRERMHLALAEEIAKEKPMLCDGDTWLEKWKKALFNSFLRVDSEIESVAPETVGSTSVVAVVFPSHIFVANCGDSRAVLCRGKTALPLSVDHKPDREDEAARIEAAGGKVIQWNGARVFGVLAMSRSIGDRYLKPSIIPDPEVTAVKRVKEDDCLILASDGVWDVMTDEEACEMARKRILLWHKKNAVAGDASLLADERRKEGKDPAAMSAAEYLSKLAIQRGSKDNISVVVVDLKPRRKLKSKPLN
Nature of the test: In vitro assay: inhibition of the phosphatase ABI1 via the co-regulator RCAR11/PYR1, MUP dephosphorylation, fluorescence. The following applies: MUP dephosphorylation, fluorescence 460 nm; read-out: ABI1 inhibition. The format is biochemical. Also noted: inhibition: dose or concentration left out as unconfirmed. The text has this: Effects of the phytohormone abscisic acid (ABA) on the behaviour of plants under abiotic stress and the mechanism of action of ABA are described in the literature (cf. Abrams et al, WO97/23441, Cutler, Park et al. Science, 2009, 324, 1068; Grill et al. Science, 2009, 324, 1064; Tanokura et al. Biophysics, 2011, 7, 123; Schroeder et al. Plant J. 2010, 61, 290). Therefore, it is possible with the aid of a suitable in vitro test system to derive a correlation between the action of ABA and the stress response of a plant under abiotic stress. Under drought stress, plants form the phytohormone abscisic acid (ABA). This binds, along with a co-regulator (Regulatory Component of ABA-Receptor=RCAR according to Grill et al. Science, 2009, 324, 1064 or PYR/PYL according to Cutler et al. Science, 2009, 324, 1068), to a phosphatase (e.g. ABI1, a type 2C protein phosphatase, also abbreviated to PP2C) and inhibits its activity. As a result, a “downstream” kinase (e.g. SnRK2) is no longer dephosphorylated. This kinase, which is thus active, via phosphorylation of transcription factors (e.g. AREB/ABF, vgl. Yoshida et al., Plant J. 2010, 61, 672), switches on a genetic protection programme to increase drought stress tolerance.
The assay described hereinafter utilizes the inhibition of the phosphatase ABI1 via the co-regulator RCAR11/PYR1 aus Arabidopsis thaliana.
For the determination of activity, the dephosphorylation of 4-methylumbelliferyl phosphate (MUP) was measured at 460 nm. The in vitro assay was conducted in Greiner 384-well PS microplates F-well, using two controls: a) dimethyl sulphoxide (DMSO) 0.5% (f.c.) and b) 5 μM (f.c.) abscisic acid (ABA). […] The substance solution thus obtained, if necessary, was stirred with esterase from porcine liver (EC 3.1.1.1) at room temperature for 3 h and centrifuged at 4000 rpm for 30 min. A total volume of 45 μl was introduced into each cavity of the microplate, having the following composition: • 1) 5 μl of substance solution, i.e. a) DMSO 5% or b) abscisic acid solution or c) the corresponding example compound of the general formula (I) dissolved in 5% DMSO. • 2) 20 μl of enzyme buffer mix, composed of a) 40% by vol. of enzyme buffer (10 ml contain equal proportions by volume of 500 mM Tris-HCl pH8, 500 mM NaCl, 3.33 mM MnCl2, 40 mM dithiothreitol (DTT)), b) 4% by vol. of ABI1 dilution (protein stock solution was diluted so as to give, after addition, a final concentration in the assay of 0.15 μg ABI1/well), c) 4% by vol. of RCAR11 dilution (enzyme stock was diluted so as to give, on addition of the dilution to the enzyme buffer mix, a final concentration in the assay of 0.30 μg enzyme/well), d) 5% by vol. of Tween20 (1%), e) 47% by vol. H2O bi-dist. • 3) 20 μl of substrate mix, composed of a) 10% by vol. of 500 mM Tris-HCl pH8, b) 10% by vol. of 500 mM NaCl, c) 10% by vol. of 3.33 mM MnCl2, d) 5% by vol. of 25 mM MUP, 5% by vol. of Tween20 (1%), 60% by vol. of H2O bi-dist.
Enzyme buffer mix and substrate mix were made up 5 minutes prior to the addition and warmed to a temperature of 35° C. On completion of pipetting of all the solutions and on completion of mixing, the plate was incubated at 35° C. for 20 minutes. Finally, a relative fluorescence measurement was made at 35° C. with a BMG Labtech “POLARstar Optima” microplate reader using a 340/10 nm excitation filter and a 460 nm emission filter. The efficacy of the compounds of the general formula (I) is reported in the table which follows using abscisic acid (No. 64) as comparative substance according to the following classification: ++++ (inhibition≥90%), +++ (90%>inhibition≥70%), ++ (70%>inhibition≥50%), +(50%>inhibition≥30%).
Effects of selected compounds of the general formula (I) in the above-described in vitro assay at a concentration of 5 mM of the substance of the general formula (I) in question in a solution of DMSO and water: […]
On to `CCOC(=O)/C=C(/C)C#CC(O)(c1ccccc1)C1(C#N)CC1` (centres unmarked) [I.1.236], for which the inhibition was greater than 90%.
As to `CCC(=C/C(=O)OC)/C=C/C(O)(C1CCCCC1)C1(C#N)CC1` (centres unmarked) [I.2-579, Methyl (2Z,4E)-6-(1-cyanocyclopropyl)-6-cyclohexyl-3-ethyl-6-hydroxyhexa-2,4-dienoate], the inhibition was greater than 90%.
Consider `CCC(CC)C(O)(/C=C/C(=C\C(=O)OC)C(F)(F)F)C1(C#N)CC1` (centres unmarked) [I.2-585, Methyl (2E,4E)-6-(1-cyanocyclopropyl)-7-ethyl-6-hydroxy-3-(trifluoromethyl)nona-2,4-dienoate], for which the inhibition was greater than 90%.

Still in this test, the particulars now being: concentration of 5 mM of the substance in a solution of DMSO and water; MUP dephosphorylation, fluorescence 460 nm.
Turning to `CCOC(=O)C=C(C#CC(O)(C(CC)CC)C1(C#N)CC1)C(F)(F)F` (racemic) [I.1-723], the ABI1 inhibition result is recorded as “+++ (90%>inhibition≥70%)”.
Same read-out and setting: then `CCC(C#CC(O)(c1cccc(F)c1)C1(C#N)CC1)=CC(=O)OC` (racemic) [I.1-768], with “++++ (inhibition≥90%)”; and `CCCC(C#CC(O)(c1cccc(F)c1)C1(C#N)CC1)=CC(=O)O` (racemic) [I.1-773], with “+++ (90%>inhibition≥70%)”; and `COC(=O)C=C(C#CC(O)(c1cccc(F)c1)C1(C#N)CC1)C(F)(F)F` (racemic) [I.1-782], with “+++ (90%>inhibition≥70%)”.
`CCOC(=O)C=C(C#CC(O)(c1cccc(F)c1)C1(C#N)CC1)C(F)(F)F` (racemic) [I.1-783]: the ABI1 inhibition entry is listed as “+++ (90%>inhibition≥70%)”.
On the same count and under the same terms, as for `CCOC(=O)C=C(C)C#CC(O)(c1cccc(F)c1)C1(C#N)CC1` (racemic) [I.1-792], the entry is “+++ (90%>inhibition≥70%)”.
With `CCC(C#CC(O)(c1ccc(C)cc1)C1(C#N)CC1)=CC(=O)OC` (racemic) [I.1-798], the ABI1 inhibition entry is recorded as “++++ (inhibition≥90%)”.
The same measure, in the same setting: as for `CCC(C#CC(O)(c1ccc(C)cc1)C1(C#N)CC1)=CC(=O)OCCOC` (racemic) [I.1-801], the entry is “++++ (inhibition≥90%)”.
As for `CCOC(=O)C=C(C#CC(O)(c1ccc(C)cc1)C1(C#N)CC1)C(F)(F)F` (racemic) [I.1-813], the ABI1 inhibition entry was “+++ (90%>inhibition≥70%)”.
Regarding `CCOC(=O)C=C(C)C#CC(O)(c1ccc(C)cc1)C1(C#N)CC1` (racemic) [I.1-822], the ABI1 inhibition entry is listed as “+++ (90%>inhibition≥70%)”.
With `CCCOC(=O)C=C(C#CC(O)(c1ccc(C)cc1)C1(C#N)CC1)C(F)(F)F` (racemic) [I.1-888], the ABI1 inhibition entry is listed as “+++ (90%>inhibition≥70%)”.
On the same count and under the same terms, then `CCOC(=O)C=C(C=CC(O)(C(C)C)C1(C#N)CC1)C1CCCC1` (racemic) [I.2-130], with “+++ (90%>inhibition≥70%)”; and `CC(C=CC(O)(C(C)C)C1(C#N)CC1)=CC(=O)O` (racemic) [I.2-134], with “++++ (inhibition≥90%)”.
As for `COC(=O)C=C(C=CC(O)(C1CCCCC1)C1(C#N)CC1)C(F)(F)F` (racemic) [I.2-581], the ABI1 inhibition result was “++++ (inhibition≥90%)”.
As to `CCCOC(=O)C=C(C=CC(O)(C1CCCCC1)C1(C#N)CC1)C(F)(F)F` (racemic) [I.2-582], the ABI1 inhibition result is on record as “++++ (inhibition≥90%)”.
For `CCOC(=O)/C=C(/C)C#CC(C)(O)C1(C#N)CC1` (centres unmarked) [I.1-36], the ABI1 inhibition entry is listed as “+++ (90%>inhibition≥70%)”.
The same measure, in the same setting: as for `CCOC(=O)/C=C(\C#CC(O)(c1ccccc1)C1(C#N)CC1)CC` (centres unmarked) [I.1-203], the entry is “++++ (inhibition≥90%)”; as for `COC(=O)/C=C(\C#CC(O)(c1ccccc1)C1(C#N)CC1)C(F)(F)F` (centres unmarked) [I.1-220], “++++ (inhibition≥90%)”; as for `COC(=O)/C=C(\C#CC(O)(c1ccc(F)cc1)C1(C#N)CC1)C(F)(F)F` (centres unmarked) [I.1-520], “++++ (inhibition≥90%)”.
On the same count and under the same terms, as for `CC/C(C#CC(O)(c1ccc(F)cc1)C1(C#N)CC1)=C/C(=O)NC1CC1` (centres unmarked) [I.1-557], the entry is “++ (70%>inhibition≥50%)”; as for `CC/C(C#CC(O)(c1ccc(F)cc1)C1(C#N)CC1)=C/C(=O)NC(C)C` (centres unmarked) [I.1-558], “++ (70%>inhibition≥50%)”; as for `CC/C(C#CC(O)(c1ccccc1)C1(C#N)CC1)=C/C(=O)OCCOC` (centres unmarked) [I.1-610], “++++ (inhibition≥90%)”.
`CCCOC(=O)/C=C(\C#CC(O)(c1ccc(F)cc1)C1(C#N)CC1)CC` (centres unmarked) [I.1-613]: the ABI1 inhibition result was “++++ (inhibition≥90%)”.
On the same count and under the same terms, then `COC(=O)/C=C(\C#CC(O)(C1CC1)C1(C#N)CC1)C(F)(F)F` (centres unmarked) [I.1-632], with “++++ (inhibition≥90%)”; and `COC(=O)/C=C(\C#CC(O)(C1CCCCC1)C1(C#N)CC1)C(F)(F)F` (centres unmarked) [I.1-692], with “+++ (90%>inhibition≥70%)”.

Staying with this test, now noted: read-out: ABI1 inhibition.
For `CC1=CC(=O)CC(C)(C)[C@@]1(O)/C=C/C(C)=C\C(=O)O` [abscisic acid, reference compound], the inhibition was greater than 90%.

The record behind these values is patent US10322995B2, “Substituted cyano cycloalkyl penta-2,4-dienes, cyano cycloalkyl pent-2-en-4-ynes, cyano heterocyclyl penta-2,4-dienes and cyano heterocyclyl pent-2-en-4-ynes as active substances against abiotic plant stress” (BAYER CROPSCIENCE AKTIENGESELLSCHAFT, priority 2014, dated 2019).
